Assays:
[1] = tested on: rabbit serum obtained by immunizing with SARS-CoV strain Frankfurt 1; type: binding
[2] = tested on: sera SARS-green, SARS-yellow, 1a, 1b, 2, 6, 37, 62 and London; type: binding, human
[3] = tested on: control serum LUMC (pooled serum of ten healthy hospital workers); type: binding, human
[4] = tested on: control serum Blood-bank (commercial negative donor pooled serum); type: binding, human

| Sequence | Rabbit serum linear peptides [1] | Rabbit serum looped peptides [1] | Recognition of the peptide by sera of individuals infected by SARS-CoV, form recognized [2] | Control serum LUMC linear peptides [3] | Control serum LUMC looped peptides [3] | Control Serum Blood-Bank Looped peptides [4] | Control serum Blood-bank linear peptides [4] |
| --- | --- | --- | --- | --- | --- | --- | --- |
| VQMTKLATTEELPDE | 0.3 | 0.6 | recognized in linear and in looped form |  |  |  |  |
| DPNQTNVVPPALHLV | 2.3 | 0.2 | recognized in linear and in looped form |  |  |  |  |
| VVQMTKLATTEELPD | 0.3 | 0.6 | recognized in linear and in looped form |  |  |  |  |
| LTITRMEDAMGQGQN | 0.3 | 0.3 | only recognized in looped form |  |  |  |  |
| MLIIFWFSLEIQDLE | 1.7 | 0.5 | recognized in linear and in looped form | 0.9 | 0.8 | 0.7 | 1.0 |
| PALHLVDPQIQLTIT | 1.3 | 0.4 | recognized in linear and in looped form |  |  |  |  |
| CSCICTVVQRCASNK | 0.1 | 0.0 | recognized in linear and in looped form |  |  |  |  |
| ITRMEDAMGQGQNSA | 0.1 | 0.4 | only recognized in looped form |  |  |  |  |
| LATTEELPDEFVVVT | 0.1 | 0.6 | recognized in linear and in looped form |  |  |  |  |
| FWFSLEIQDLEEPCT | 0.1 | 0.5 | recognized in linear and in looped form | 0.3 | 0.8 | 1.1 | 0.5 |
| TITRMEDAMGQGQNS | 0.1 | 0.6 | only recognized in looped form |  |  |  |  |
| LIIFWFSLEIQDLEE | 0.5 | 0.7 | recognized in linear and in looped form | 0.7 | 0.9 | 0.7 | 0.8 |
| TKLATTEELPDEFVV | 0.1 | 0.6 | recognized in linear and in looped form |  |  |  |  |
| FSLEIQDLEEPCTKV | 0.4 | 0.5 | recognized in linear and in looped form | 0.6 | 0.7 | 1.0 | 0.7 |
| NQTNVVPPALHLVDP | 0.1 | 0.4 | recognized in linear and in looped form |  |  |  |  |
| NELTLIDFYLCFLAF | 0.4 | 0.8 |  | 0.6 | 0.9 | 0.5 | 0.6 |
| MEDAMGQGQNSADPK | 0.1 | 0.4 | only recognized in looped form |  |  |  |  |
| IFWFSLEIQDLEEPC | 0.3 | 0.5 | recognized in linear and in looped form | 0.7 | 0.8 | 0.8 | 0.8 |
| TRMEDAMGQGQNSAD | 0.4 | 0.4 | only recognized in looped form |  |  |  |  |
| PPALHLVDPQIQLTI | 0.2 | 0.3 | recognized in linear and in looped form |  |  |  |  |
| LCFLAFLLFLVLIML | 0.2 | 0.3 |  | 0.4 | 0.4 | 0.7 | 0.7 |
| CFLAFLLFLVLIMLI | 0.0 | 0.6 |  | 0.3 | 0.4 | 0.8 | 0.6 |

| Sequence | Rabbit serum linear peptides [1] | Rabbit serum looped peptides [1] | Recognition of the peptide by sera of individuals infected by SARS-CoV, form recognized [2] | Control serum LUMC linear peptides [3] | Control serum LUMC looped peptides [3] | Control Serum Blood-Bank Looped peptides [4] | Control serum Blood-bank linear peptides [4] |
| --- | --- | --- | --- | --- | --- | --- | --- |
| ATTEELPDEFVVVTA | 0.1 | 0.5 | recognized in linear and in looped form |  |  |  |  |
| RCASNKPHVLEDPCK | 0.1 | 0.6 | recognized in linear and in looped form |  |  |  |  |
| ELTLIDFYLCFLAFL | 0.4 | 0.6 |  | 0.5 | 0.7 | 0.6 | 0.7 |
| PNQTNVVPPALHLVD | 0.4 | 0.2 | recognized in linear and in looped form |  |  |  |  |
| LAFLLFLVLIMLIIF | 0.4 | 1.1 |  | 0.3 | 0.4 | 0.8 | 0.6 |
| FLAFLLFLVLIMLII | 0.3 | 0.7 |  | 0.5 | 0.4 | 0.7 | 0.7 |
| LIDFYLCFLAFLLFL | 0.3 | 0.3 |  | 0.4 | 0.7 | 0.5 | 0.7 |
| VVQRCASNKPHVLED | 0.2 | 0.5 | recognized in linear and in looped form |  |  |  |  |
| CICTVVQRCASNKPH | 0.0 | 0.5 | recognized in linear and in looped form |  |  |  |  |
| MTKLATTEELPDEFV | 0.1 | 0.6 | recognized in linear and in looped form |  |  |  |  |
| QRCASNKPHVLEDPC | 0.1 | 0.5 | recognized in linear and in looped form |  |  |  |  |
| MNELTLIDFYLCFLA | 0.4 | 0.5 |  | 1.1 | 0.9 | 0.5 | 0.7 |
| IDFYLCFLAFLLFLV | 0.4 | 0.5 |  | 0.5 | 0.7 | 0.6 | 0.9 |
| SCICTVVQRCASNKP | 0.0 | 0.8 | recognized in linear and in looped form |  |  |  |  |
| QMTKLATTEELPDEF | 0.1 | 0.6 | recognized in linear and in looped form |  |  |  |  |
| KLATTEELPDEFVVV | 0.2 | 0.5 | recognized in linear and in looped form |  |  |  |  |
| LTLIDFYLCFLAFLL | 0.3 | 0.5 |  | 0.8 | 0.7 | 0.5 | 0.9 |
| AFLLFLVLIMLIIFW | 0.5 | 1.0 |  | 0.4 | 0.4 | 0.8 | 0.8 |
| QTNVVPPALHLVDPQ | 0.1 | 0.4 | recognized in linear and in looped form |  |  |  |  |
| VQRCASNKPHVLEDP | 0.1 | 0.5 | recognized in linear and in looped form |  |  |  |  |
| RMEDAMGQGQNSADP | 0.1 | 0.5 | only recognized in looped form |  |  |  |  |

— patent US20060154243A1 (priority 2003, published 2006)
